Experimental data published in patent publication US20210340178A1, “NONAPEPTIDE PREVENTING INCREASED HYPERPERMEABILITY OF VASCULAR ENDOTHELIUM” (FEDERALNOYE GOSUDARSTVENNOE BUDGETNOE UCHREZHDENIE …, priority 2018, published 2021).
“Also recorded” adds a separate entry of the source. Non-standard residues stand in square brackets, D forms with d. Residues, ends and D or L forms follow the SMILES beside them.

Tested on: myosin regulatory light chain (RLC) phosphorylation in EA.hy926 endothelial cells
Assay: Thrombin-induced myosin RLC phosphorylation in endothelial cells (immunoblotting)
Format: cell-based
Conditions: peptide 100 μM, 1 hr; thrombin 100 nM, 20 min
Experimental: FIG. 4. Inhibition of the thrombin-induced RLC phosphorylation in EA.hy926 endothelial cells by PIK2, PIK7 ([D-Lys^12]-MLC11-19), or MLC11-19 MLCK peptide inhibitors. Inhibitors were added up to 100 μM, n=3-5. p<0.05 for PIK2, PIK7 vs control (0, 20 min). p<0.05 for PIK2 vs PIK7 (0, 20 min).
Inhibitory effects of the claimed peptide (PIK7), its prototype (PIK2), and analogue (MLC11-19) were compared in an assay of myosin regulatory light chain (RLC) phosphorylation in vitro as described in Example 4.
Antagonistic effects of MLCK peptide inhibitors on the thrombin-mediated RLC phosphorylation in EA.hy926 endothelial cells were tested as follows. The cells were grown in 35-mm dishes in DMEM at 37° C. and the 5% CO2 atmosphere until the monolayer formed. Then, the cells were serum-starved while simultaneously incubated with 100 μM MLCK inhibitors at 37° C., 5% CO2 for 1 hr (control, 0 min). Next, the cells were stimulated with 100 nM thrombin for 20 min and collected on ice, i.e. the medium was decanted, the cells were washed with cold PBS and lysed with 100 μL of Laemmli denaturing electrophoresis buffer. The sample proteins were separated by SDS-PAGE and proceeded to immunoblotting with anti-total, anti-monophosphorylated, and anti-diphosphorylated RLC. […]

C[C@H](NC(=O)[C@H](C)NC(=O)[C@H](CCCNC(=N)N)NC(=O)[C@@H](CCCCN)NC(=O)[C@@H](N)CCCCN)C(=O)N[C@@H](CCCNC(=N)N)C(=O)N[C@@H](C)C(=O)N[C@H](C(=O)N[C@@H](CO)C(N)=O)[C@@H](C)O [PIK7, H-Lys-D-Lys-Arg-Ala-Ala-Arg-Ala-Thr-Ser-NH2] (H-K[dK]RAARATS-NH2)
inhibition of thrombin-induced RLC phosphorylation: inhibited myosin RLC phosphorylation in endothelial cells with efficacy higher than that of either the prototype, PIK2, or the analogue, MLC11-19; also recorded: inhibits RLC phosphorylation in endothelial cells and its efficacy is superior to both the prototype, PIK2, and the analogue, MLC11-19
